Results on 1 compound are retold here after patent publication US20230055713A1, “COMPOSITION FOR STRENGTHENING SKIN BARRIER OR MOISTURIZING SKIN COMPRISING TILIANIN” (COSMAX NBT, INC., priority 2021, published 2023).

What all share (type): in vivo
Assay [1] deals with UVB-irradiated hairless mice. Description: Skin moisture content (Corneometer) on the dorsal skin of UVB-irradiated hairless mice. Particulars: T10 group: 10 mg/kg/week oral, 12 weeks. On the procedure: (§1) Five-week-old female hairless mice (SKFI-1) were purchased from Orient Bio (Seongnam, Korea) as experimental animals. Diets of feed and water were freely given, and the animals were bred at the Yonsei Laboratory Animal Research Center (YLARC, Seoul, Korea) under conditions of 25° C. and 50 to 60% humidity for 12 hours. The hairless mice were randomly assigned to the following five groups: (i) a control group, (ii) a UVB-irradiated group (UVB), (iii) a UVB+100 mg/kg/day ARE-administered group (ARE100), (iv) a UVB+250 mg/Kg/day ARE-administered group (ARE250) and (v) UVB+10 mg/kg/week tilianin-administered group (T10). After one week of acclimatization, oral administrations of ARE and tilianin were performed daily for 12 weeks. […]
(§2) Before anesthetizing the hairless mice, the moisture content and the degree of transepidermal water loss (TEWL) were measured on the dorsal section of the hairless mice. Moisture content was measured using CORNEOMETER® 825 (CK Electronics GmbH) at a pressure of 1.1 to 1.5 N after contacting a probe to the skin surface. The TEWL which represents the amount of the evaporation of transepidermal water in the process of damage and recovery of a skin barrier was measured under conditions of 20 to 25° C. and 40 to 60% humidity using TEWAMETER® TM300 (CK Electronics GmbH) equipped with MULTI PROBE ADAPTER® MPA5 (CK Electronics GmbH).

The subject of assay [2] is UVB-irradiated hairless mice. Description: Transepidermal water loss (TEWL, Tewameter) on the dorsal skin of UVB-irradiated hairless mice. The note with it: ARE 100/250 mg/kg/day or tilianin 10 mg/kg/week oral, 12 weeks, vs UVB group. How it is done: as §1, §2
Another assay deals with hyaluronic acid. Description: Hyaluronic acid concentration in skin homogenate (ELISA) of UVB-irradiated hairless mice. Particulars: UVB+T10 group: 10 mg/kg/week oral, 12 weeks. On the procedure:
as §1, with “weeks. In this case, the hairless mice belonging to the CON group and the UVB groups were orally administered with saline instead of the samples.” for “weeks.”
Specifically, the skin tissues of the hairless mice of each group in Example 2-1 were homogenized with NP40 lysis buffer (Elpis Biotech, Daejeon, Korea). The concentration of hyaluronic acid in the homogenate was determined using the hyaluronic acid quantikine ELISA Kit (R&D Systems, Minneapolis, Minn., USA) according to the manufacturer's protocol. Absorbance was read at 450 nm using the VERSAMAX™ variable microplate reader (Molecular Devices, Inc., Sunnyvale, Calif., USA).

The next assay deals with HAS1. Description: HAS1 mRNA expression in skin tissue (RT-PCR) of UVB-irradiated hairless mice. The note with it: oral administration, 12 weeks, compared to the UVB-treated group. On the procedure:
as §1, with “weeks. In this case, the hairless mice belonging to the CON group and the UVB groups were orally administered with saline instead of the samples. The hairless mice of the remaining groups except the CON group were irradiated with UVB, and the UVB irradiation was carried out using UV crosslinker CL-1000M (UVP) toward the back 3 times per week.” for “weeks.”
(§3) Specifically, mRNA was isolated from the skin tissues of each group in Example 2-1 using RNAISO™ Plus (Takara). The mRNA was quantified using the NANODROP™ 1000 spectrophotometer (Thermo Fisher Scientific Inc.). […]

For a further assay, the system named is HAS2. Description: HAS2 mRNA expression in skin tissue (RT-PCR) of UVB-irradiated hairless mice. Particulars: oral administration, 12 weeks, compared to the UVB-treated group. How it is done: as §1, with “weeks. In this case, the hairless mice belonging to the CON group and the UVB groups were orally administered with saline instead of the samples. The hairless mice of the remaining groups except the CON group were irradiated with UVB, and the UVB irradiation was carried out using UV crosslinker CL-1000M (UVP) toward the back 3 times per week.” for “weeks.”
as §3

A further assay concerns HAS3. As to the kind of experiment: HAS3 mRNA expression in skin tissue (RT-PCR) of UVB-irradiated hairless mice. Particulars: oral administration, 12 weeks, compared to the UVB-treated group. On the procedure: as §1, with “weeks. In this case, the hairless mice belonging to the CON group and the UVB groups were orally administered with saline instead of the samples. The hairless mice of the remaining groups except the CON group were irradiated with UVB, and the UVB irradiation was carried out using UV crosslinker CL-1000M (UVP) toward the back 3 times per week.” for “weeks.”
as §3

For the compound `COc1ccc(-c2cc(=O)c3c(O)cc(O[C@@H]4O[C@H](CO)[C@@H](O)[C@H](O)[C@H]4O)cc3o2)cc1` [tilianin], in assay [1], the “moisture content in the skin” value was “restored to normal levels”. Besides, the “TEWL (transepidermal water loss)” value in assay [2] was “decreased to a significant level”. Also, in the assay on hyaluronic acid, the “content of hyaluronic acid, increase compared to the UVB-treated group” value is listed as 42.26%. Besides, the “mRNA expression level of HAS1” value in the assay on HAS1 is “significantly increased”. Also, the “mRNA expression level of HAS2” value with HAS2 is “significantly increased”. In the assay with HAS3, the “mRNA expression level of HAS3” value was “significantly increased”.
